“Also recorded” adds a separate entry of the source.
Experiments:
[1] = system: human MM (RPMI8226, U266, H929) and MCL (JeKo-1, HBL2, Mino) cell lines; assay: MM and MCL cytotoxicity EC50 measurements, cell line panel; assay type: cell-based; details: 3 MM and 3 MCL cell lines, 48 hours
Procedure: (§1) Finally, we sought to compare the new lead analog (50) against the clinical drug bortezomib. It has been shown that in addition to MM, mantle cell lymphoma (MCL) is also sensitive to proteasome inhibition. Indeed, bortezomib itself is FDA-approved for the treatment of MCL.^23 Therefore, we compared 50 and bortezomib in 3 different cell lines of both MM and MCL (FIG. 6E, FIG. 7).
(§2) Cells were seeded in a 96-well plate (20,000 cells/well) in cell culture media supplemented with indicated compounds (1,000× stock in DMSO) or DMSO and cultured for 48 hours. Toxicity was determined using the WST-1 assay (Roche) according to the protocol of the manufacturer. (n=3)

[2] = system: upregulated protein expression; assay: Global proteomics experiments; assay type: cell-based, human
proteasome subunit β5 = molecular target: T1, proteasome subunit β5 (Homo sapiens, UniProt P28074); assay: Proteasome inhibition IC50 measurements in RPMI 8226 cells, substrate Suc-LLVY-AMC (β5); assay type: cell-based
T1 construct: Cells were then collected and lysed; endogenous in cells; host or cells: RPMI 8226
From the text: Our preliminary series of analogs (FIG. 3), including the natural product glidobactin A (2), were synthesized by largely the same route (FIG. 2).^13 Desoxycepafungin (38) was synthesized from Boc-Lys(Boc)-OH to assess the role of the macrocycle hydroxylation in 1 towards proteasome inhibition. The saturated cepafungin analog 39 was designed to address the possible role of rigidity in the tail fragment induced by the diene seen in many natural cepafungins and glidobactins. An analog bearing unsaturation at its macrocyclic lysine was envisioned to provide a head-to-head comparison between the cepafungin and syringolin A (4) macrocyclic core. […] Proteasome subunit β5 IC50 values were determined in situ in RPMI 8226 cells (FIG. 3). In close agreement with prior measurement of β5 IC50 for natural 1 and 2 in purified yeast proteasome,^8 in our hands the additional branching methyl in 1 indeed leads to ca. 5-fold improved IC50 compared to 2 in RPMI 8226 cells. […] Likewise, saturation of the fatty acid fragment in 39 causes ca. 14-fold decrease in β5 inhibition. This preliminary series of analogs highlighted that the macrocyclic hydroxylation, fatty acid unsaturation, and terminal lipid functionality are critical for potent proteasome inhibitory activity.
(§3) Cellular assays were performed with human multiple myeloma cell line RPMI 8226. First, relative inhibition of proteasome subunits β5 and β2 for all analogs and the natural product was measured at 30 nM compound concentration. Following incubation of the analogs in cell culture for 6 hours, cells were lysed and fluorogenic subunit-specific peptide substrates Suc-LLVY-AMC (β5) or Ac-RLR-AMC (β2) were incubated with the lysates, and fluorescence readings provided relative proteasome activity levels with respect to DMSO (FIG. 6A). Next, cytotoxicity screening was performed at 30 nM and 100 nM concentrations for better coverage of dynamic range (FIG. 6B). […] Therefore, the improved cytotoxicity of phenyl cepafungin 50 likely results from a more pronounced loss of β5 function in RPMI 8226 cells. This drastic increase in proteasome inhibition may be due to pi-stacking of the lipid tail phenyl ring with the β6 subunit residues Tyr106 and/or Tyr5. The β2 subunit-bound natural product has residues Tyr102 and Phe103 on the adjacent β3 subunit oriented further away from the terminal lipid methyl groups, and presumably would not facilitate pi-stacking to the extent possible at the adjacent β6 subunit (see FIG. 4, FIG. 9). […]
(§4) RPMI 8226 cells were seeded in a 6-well plate (1,000,000 cells/well) in cell culture media supplemented with indicated compounds (1,000× stock in DMSO) or DMSO and cultured for 6 hours. […] The plates were incubated at 37° C. for one hour and fluorescence was read at A360ex/A460em. […]

20S proteasome = molecular target: T2, 20S proteasome (Homo sapiens, UniProt P28074+Q99436); assay: In-gel competitive profiling and in situ competitive LC-MS/MS based chemoproteomics; assay type: cell-based; details: human MM cells, alkyne-tagged probe analog
T2 construct: endogenous in cells
T2 sequence (P28074 60-263): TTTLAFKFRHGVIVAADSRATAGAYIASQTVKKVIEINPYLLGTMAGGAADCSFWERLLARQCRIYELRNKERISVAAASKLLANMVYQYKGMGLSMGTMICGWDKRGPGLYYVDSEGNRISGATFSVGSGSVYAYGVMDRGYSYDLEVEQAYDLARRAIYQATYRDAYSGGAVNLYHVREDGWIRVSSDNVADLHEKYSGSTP
T2 sequence (Q99436 44-277): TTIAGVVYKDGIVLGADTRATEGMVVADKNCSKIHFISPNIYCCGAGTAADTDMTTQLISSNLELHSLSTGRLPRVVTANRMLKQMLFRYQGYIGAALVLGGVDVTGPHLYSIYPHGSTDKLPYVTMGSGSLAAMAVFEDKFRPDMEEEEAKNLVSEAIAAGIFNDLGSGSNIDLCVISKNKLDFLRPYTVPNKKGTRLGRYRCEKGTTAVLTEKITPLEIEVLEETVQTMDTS
From the text: Prior to our work, a major knowledge gap in the bioactivity of cepafungin was its engagement of the proteasome in human MM cells and selectivity in targeting the proteasome over a multitude of other proteases. To address this, an alkyne-tagged probe analog was synthesized by our chemoenzymatic route and used for classical chemoproteomics studies.

[3] = molecular target: β5 subunit of purified yeast proteasome (Saccharomyces cerevisiae, UniProt P23724+P30656); details: literature ref. 8; cited from earlier work
β2 and β5 subunits = details: introduction, no test specified; cited from earlier work
proteasome subunit β2 = assay: Proteasome inhibition IC50 measurements in RPMI 8226 cells, substrate Ac-RLR-AMC (β2); assay type: cell-based, human; details: 6 hours
Procedure: as §3, with “Tyr5.” for “Tyr5. The β2 subunit-bound natural product has residues Tyr102 and Phe103 on the adjacent β3 subunit oriented further away from the terminal lipid methyl groups, and presumably would not facilitate pi-stacking to the extent possible at the adjacent β6 subunit (see FIG. 4, FIG. 9).”
as §4

RPMI 8226 cells [4] = assay: RPMI 8226 cytotoxicity EC50 measurements (WST-1); assay type: cell-based, human
Procedure: (§5) RPMI 8226 cells were seeded in a 96-well plate (20,000 cells/well) in cell culture media supplemented with indicated compounds (1,000× stock in DMSO) or DMSO and cultured for 48 hours. Toxicity was determined using the WST-1 assay (Roche) according to the protocol of the manufacturer. (n=3)
as §5, with “Cytotoxicity of phenyl cepafungin (50) and hybrid analog (S39) in RPMI 8226 RPMI” for “RPMI”

RPMI 8226 cells [5] = assay: RPMI8226 cytotoxicity screening (WST-1); assay type: cell-based, human; details: 30 nM and 100 nM, cytotoxicities track with proteasome inhibition at 30 nM
Procedure: Cellular assays were performed with human multiple myeloma cell line RPMI 8226. First, relative inhibition of proteasome subunits β5 and β2 for all analogs and the natural product was measured at 30 nM compound concentration. Following incubation of the analogs in cell culture for 6 hours, cells were lysed and fluorogenic subunit-specific peptide substrates Suc-LLVY-AMC (β5) or Ac-RLR-AMC (β2) were incubated with the lysates, and fluorescence readings provided relative proteasome activity levels with respect to DMSO (FIG. 6A). Next, cytotoxicity screening was performed at 30 nM and 100 nM concentrations for better coverage of dynamic range (FIG. 6B). […] Therefore, the improved cytotoxicity of phenyl cepafungin 50 likely results from a more pronounced loss of β5 function in RPMI 8226 cells. This drastic increase in proteasome inhibition may be due to pi-stacking of the lipid tail phenyl ring with the β6 subunit residues Tyr106 and/or Tyr5. The β2 subunit-bound natural product has residues Tyr102 and Phe103 on the adjacent β3 subunit oriented further away from the terminal lipid methyl groups, and presumably would not facilitate pi-stacking to the extent possible at the adjacent β6 subunit (see FIG. 4, FIG. 9). […] These combined modifications were made in hopes that the effects of both substitutions would be additive.
[…] Toxicity was determined using the WST-1 assay (Roche) according to the protocol of the manufacturer. (n=3)

U266 = assay: MM and MCL cytotoxicity EC50 measurements, U266; assay type: cell-based; details: Homo sapiens, U-266; U266, 48 hours, WST-1
Procedure: as §1, §2

Compound | cytotoxicity compared with bortezomib, in words [1] | overlap in upregulated protein expression between 1 and bortezomib [2] | fold improved β5 IC50 of 1 compared to 2 (proteasome subunit β5; in situ in RPMI 8226 cells) | fold improved β5 inhibition of 1 compared to desoxy-cepafungin analog 38 (proteasome subunit β5; in situ in RPMI 8226 cells) | selectivity of proteasome engagement, in words (20S proteasome) | selectivity of proteasome engagement, in words (20S proteasome; listed as cepafungin) | fold improvement of β5-subunit inhibition compared to glidobactin A (2) [3] | proteasome inhibitory activity, in words (β2 and β5 subunits) | fold lower β5 IC50 than 1 / fold greater β5 inhibitory activity (proteasome subunit β5; RPMI 8226 cells, 6 hours) [fold] | β2 subunit IC50 compared with 1, in words (proteasome subunit β2) | EC50 (RPMI 8226 cells [4]; Homo sapiens, RPMI 8226, 48 hours, WST-1) [µM] | fold greater cytotoxicity than parent cepafungin I 1 (RPMI 8226 cells [4]; RPMI 8226, EC50 comparison) | potency compared with parent natural product 1 in screening (FIG. 6A, 6B) (RPMI 8226 cells [5]) | EC50 (U266) [µM]
CC(C)C[C@H](NC(=O)[C@H](Cc1ccccc1)NC(=O)c1cnccn1)B(O)O [bortezomib, reference compound] | low-nanomolar cytotoxicity | high degree of overlap in upregulated protein expression | – | – | – | – | – | – | – | – | – | – | – | –
CC(C)CCCCC/C=C/C=C\C(=O)N[C@H](C(=O)N[C@H]1C[C@H](O)CCNC(=O)/C=C\[C@H](C)NC1=O)[C@@H](C)O [compound 1, cepafungin I] | – | high degree of overlap in upregulated protein expression | ca. 5 fold | ca. 11 fold | exceptional selectivity | exceptional selectivity towards several proteasome subunits | ca. 5 fold | most potent proteasome inhibitor among the syrbactins; also recorded: low nanomolar inhibitory activity | – | – | – | – | – | –
C[C@H]1/C=C/C(=O)NCC[C@H](O)C[C@H](NC(=O)[C@@H](NC(=O)/C=C/C=C/CCCCCc2ccccc2)[C@@H](C)O)C(=O)N1 [compound 50, (2E,4E)-N-((2S,3R)-3-hydroxy-1-(((5S,8S,10S,E)-10-hydroxy-5-methyl-2,7-dioxo-1,6-diazacyclododec-3-en-8-yl)amino)-1-oxobutan-2-yl)-10-phenyldeca-2,4-dienamide] | similarly low-nanomolar cytotoxicity in all cell lines as bortezomib except for U266 | – | – | – | – | – | – | – | 7 | roughly similar IC50 | 0.003 | 4-5 fold | more potent than the parent natural product 1; also recorded: most potent | ~0.02

From patent US20250282818A1, “SYRBACTIN MACROLACTAMS AND UNNATURAL ANALOGS AS PROTEASOME INHIBITORS FOR THE TREATMENT OF MULTIPLE MYELOMA AND CHEMOENZYMATIC SYNTHESIS THEREOF” (UNIVERSITY OF FLORIDA RESEARCH FOUNDATION,INCORPORATED, priority 2022, published 2025)
